Results as given in patent US20250115590A1, “MATRIX METALLOPROTEINASE (MMP) INHIBITORS AND METHODS OF USE THEREOF” (Foresee Pharmaceuticals USA, Inc., priority 2018, published 2025).
pIC50: −log10 of the molar value. Read-outs that look alike come from different tables or passages of the source.

Legend:
Type in all cases: biochemical
recombinant human MMP-14 = recombinant human MMP-14 (Homo sapiens (Human), UniProt P50281); assay: MMP selectivity assay, MMP-14; settings: Table 2 selectivity profile; read-out: MMP-14 Activity (IC50 class)
Description: (§1) The inhibitory effect of compounds on the rate of cleaving fluorogenic MMP substrate (Enzo, BML-P128) by recombinant human MMP-12 catalytic domain (Enzo, BML-SE138) was carried out by methods known in the art. Briefly, to each well of a 96-well black opaque plate, all the reagents were sequentially added by pipetting, and the final reaction contained 4 nM of recombinant human MMP-12 catalytic domain, […] of fluorogenic MMP substrate, and various concentrations (0.15 nM to 10,000 nM) of tested compound dilutions in HEPES buffer (pH 7.5) containing 10 mM of CaCl2, 0.01% Brij® 35 (polyoxyethylene (23) lauryl ether), and 0.1 mg/ml of BSA.
(§2) The enzyme and compounds were pre-incubated on a shaker to mix in wells. After an hour of mixing, fluorogenic substrate was added to each well. Reaction without enzyme was used as a blank control in the plate. The plate was then fed into a plate reader to measure fluorescence intensity at Excitation/Emission wavelengths of 340 nm/440 nm every 10 mins for at least 1 hour at 37° C. The IC50 of each compound in MMP-12 inhibition was determined by using a readout obtained at time point 30 minutes.
(§3) The MMP selectivity assay was performed by using other recombinant human MMPs, including MMP-1, MMP-2, MMP-3, MMP-7, MMP-8, MMP-9, MMP-10, MMP-13, and MMP-14. The IC50 of the compounds for the other recombinant human MMPs was determined as described above in Example 1, and are shown in Table 2.

recombinant human MMP-3 = recombinant human MMP-3 (Homo sapiens (Human), UniProt P08254); assay: MMP selectivity assay, MMP-3; settings: Table 2 selectivity profile; read-out: MMP-3 Activity (IC50 class)
Description: as §1, §2, §3

recombinant human MMP-10 = recombinant human MMP-10 (Homo sapiens (Human), UniProt P09238); assay: MMP selectivity assay, MMP-10; settings: Table 2 selectivity profile; read-out: MMP-10 Activity (IC50 class)
Description: as §1, §2, §3

recombinant human MMP-2 = recombinant human MMP-2 (Homo sapiens (Human), UniProt P08253); assay: MMP selectivity assay, MMP-2; settings: Table 2 selectivity profile; read-out: MMP-2 Activity (IC50 class)
Description: as §1, §2, §3

[1] = target: recombinant human MMP-12 catalytic domain (Homo sapiens (Human), UniProt P39900); assay: MMP-12 inhibitory assay (fluorogenic substrate cleavage)
Description: as §1, §2

recombinant human MMP-9 = recombinant human MMP-9 (Homo sapiens (Human), UniProt P14780); assay: MMP selectivity assay, MMP-9; settings: Table 2 selectivity profile; read-out: MMP-9 Activity (IC50 class)
Description: as §1, §2, §3

recombinant human MMP-8 = recombinant human MMP-8 (Homo sapiens (Human), UniProt P22894); assay: MMP selectivity assay, MMP-8; settings: Table 2 selectivity profile; read-out: MMP-8 Activity (IC50 class)
Description: as §1, §2, §3

recombinant human MMP-7 = recombinant human MMP-7 (Homo sapiens (Human), UniProt P09237); assay: MMP selectivity assay, MMP-7; settings: Table 2 selectivity profile; read-out: MMP-7 Activity (IC50 class)
Description: as §1
as §2, with “Reaction without enzyme was used as a blank control in the plate.” left out
as §3

recombinant human MMP-13 = recombinant human MMP-13 (Homo sapiens (Human), UniProt P45452); assay: MMP selectivity assay, MMP-13; settings: Table 2 selectivity profile; read-out: MMP-13 Activity (IC50 class)
Description: as §1, §2, §3

[2] = Table 2 selectivity profile, read-out: MMP-12 Activity (IC50 class)
[3] = readout at 30 minutes, 37° C., pH 7.5, Table 1, read-out: MMP-12 IC50

Sequence of recombinant human MMP-3 (P08254 100-477): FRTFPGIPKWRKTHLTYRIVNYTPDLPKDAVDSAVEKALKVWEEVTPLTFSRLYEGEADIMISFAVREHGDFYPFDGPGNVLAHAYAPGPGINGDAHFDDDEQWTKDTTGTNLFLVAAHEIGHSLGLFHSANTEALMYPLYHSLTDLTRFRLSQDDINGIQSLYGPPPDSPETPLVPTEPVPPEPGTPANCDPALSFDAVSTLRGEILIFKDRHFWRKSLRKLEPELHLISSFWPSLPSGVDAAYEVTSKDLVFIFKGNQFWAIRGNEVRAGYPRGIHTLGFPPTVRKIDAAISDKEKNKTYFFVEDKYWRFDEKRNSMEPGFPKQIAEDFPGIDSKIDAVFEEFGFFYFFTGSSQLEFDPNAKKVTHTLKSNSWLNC
Sequence of recombinant human MMP-8 (P22894 101-467): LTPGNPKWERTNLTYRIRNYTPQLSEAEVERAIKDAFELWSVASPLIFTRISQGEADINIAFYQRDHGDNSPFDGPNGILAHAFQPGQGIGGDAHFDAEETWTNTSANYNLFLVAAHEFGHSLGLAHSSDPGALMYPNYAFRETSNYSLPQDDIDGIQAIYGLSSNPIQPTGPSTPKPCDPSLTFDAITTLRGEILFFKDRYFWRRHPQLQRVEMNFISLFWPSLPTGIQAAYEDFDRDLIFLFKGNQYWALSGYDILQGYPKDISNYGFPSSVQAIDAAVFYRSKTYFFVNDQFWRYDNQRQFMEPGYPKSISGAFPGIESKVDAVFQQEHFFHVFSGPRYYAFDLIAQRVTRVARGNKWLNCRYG
Sequence of recombinant human MMP-9 (P14780 94-707): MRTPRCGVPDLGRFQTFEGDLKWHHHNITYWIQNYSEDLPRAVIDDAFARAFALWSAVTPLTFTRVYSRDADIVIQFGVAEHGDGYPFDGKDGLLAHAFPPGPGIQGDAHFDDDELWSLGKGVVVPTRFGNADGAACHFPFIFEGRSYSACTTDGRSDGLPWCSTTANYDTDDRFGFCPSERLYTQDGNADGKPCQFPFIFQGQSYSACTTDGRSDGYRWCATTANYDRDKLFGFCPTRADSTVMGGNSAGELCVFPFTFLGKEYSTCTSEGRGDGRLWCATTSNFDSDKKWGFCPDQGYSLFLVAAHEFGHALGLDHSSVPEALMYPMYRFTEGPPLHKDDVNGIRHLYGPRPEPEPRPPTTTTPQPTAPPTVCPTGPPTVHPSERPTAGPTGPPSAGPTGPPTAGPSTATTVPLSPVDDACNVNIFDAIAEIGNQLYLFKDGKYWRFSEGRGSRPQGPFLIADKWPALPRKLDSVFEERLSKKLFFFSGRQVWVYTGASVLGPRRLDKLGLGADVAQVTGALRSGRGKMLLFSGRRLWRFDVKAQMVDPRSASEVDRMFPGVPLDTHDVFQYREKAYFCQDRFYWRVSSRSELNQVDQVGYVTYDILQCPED
Sequence of recombinant human MMP-2 (P08253 110-660): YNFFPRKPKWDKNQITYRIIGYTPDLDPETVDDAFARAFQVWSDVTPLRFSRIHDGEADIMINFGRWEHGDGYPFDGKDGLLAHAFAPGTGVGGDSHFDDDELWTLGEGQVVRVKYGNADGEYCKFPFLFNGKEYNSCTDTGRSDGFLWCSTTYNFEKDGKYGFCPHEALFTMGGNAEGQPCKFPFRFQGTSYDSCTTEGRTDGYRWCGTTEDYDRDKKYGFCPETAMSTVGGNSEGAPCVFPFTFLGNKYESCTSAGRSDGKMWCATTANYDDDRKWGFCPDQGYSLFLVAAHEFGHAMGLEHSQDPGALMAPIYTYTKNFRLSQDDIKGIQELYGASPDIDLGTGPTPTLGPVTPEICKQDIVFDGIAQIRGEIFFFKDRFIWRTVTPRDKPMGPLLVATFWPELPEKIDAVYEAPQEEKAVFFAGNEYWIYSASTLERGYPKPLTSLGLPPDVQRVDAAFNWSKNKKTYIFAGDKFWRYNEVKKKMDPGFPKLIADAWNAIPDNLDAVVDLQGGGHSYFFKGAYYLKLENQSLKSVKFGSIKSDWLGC
Sequence of recombinant human MMP-12 catalytic domain (P39900 106-268): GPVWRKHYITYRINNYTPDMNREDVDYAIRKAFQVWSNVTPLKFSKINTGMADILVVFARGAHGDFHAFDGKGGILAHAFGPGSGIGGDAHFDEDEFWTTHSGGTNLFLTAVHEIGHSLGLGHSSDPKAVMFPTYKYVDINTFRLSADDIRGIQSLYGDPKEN
Sequence of recombinant human MMP-10 (P09238 99-476): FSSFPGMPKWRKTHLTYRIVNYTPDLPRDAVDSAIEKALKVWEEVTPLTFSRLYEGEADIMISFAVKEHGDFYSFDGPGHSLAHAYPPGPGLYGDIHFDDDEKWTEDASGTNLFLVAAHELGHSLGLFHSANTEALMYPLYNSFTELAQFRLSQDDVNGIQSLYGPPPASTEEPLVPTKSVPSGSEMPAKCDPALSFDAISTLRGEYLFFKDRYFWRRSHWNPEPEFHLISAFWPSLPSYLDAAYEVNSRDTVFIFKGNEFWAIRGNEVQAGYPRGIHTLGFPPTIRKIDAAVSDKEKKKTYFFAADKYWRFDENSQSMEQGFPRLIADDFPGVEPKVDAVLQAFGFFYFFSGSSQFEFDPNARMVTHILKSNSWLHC
Sequence of recombinant human MMP-7 (P09237 95-267): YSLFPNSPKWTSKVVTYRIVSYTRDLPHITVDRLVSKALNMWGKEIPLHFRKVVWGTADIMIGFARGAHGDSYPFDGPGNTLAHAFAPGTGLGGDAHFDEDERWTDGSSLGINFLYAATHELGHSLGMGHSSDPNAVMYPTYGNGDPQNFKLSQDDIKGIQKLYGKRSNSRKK

`NC(=O)c1cccc(COc2ccc(Sc3ccncc3C3NC(=O)NC3=O)cc2)c1` (stereo not shown) [PC-28] was tested, and the pIC50 (recombinant human MMP-14) was < 6.00, the pIC50 (recombinant human MMP-3) was < 6.00 and the pIC50 (recombinant human MMP-10) was < 6.00. For the same compound, the pIC50 (recombinant human MMP-2) was < 6.00, the pIC50 [1, 2] was > 8.00 and the pIC50 [1, 3] was > 8.00. The pIC50 (recombinant human MMP-9) was < 6.00.
`O=C1NC(=O)C(c2sccc2Sc2ccc(OCc3ccc(CO)cc3)cc2)N1` (stereo not shown) [TC6] was tested, and the pIC50 [1, 3] was > 8.00.
For `O=C1NC(=O)C(c2ccncc2Sc2ccc(OCc3cncc(C(=O)O)c3)cc2)N1` (stereo not shown) [PC-24], the pIC50 [1, 3] was < 6.00.
With `Cc1cccc(OCc2ccc(Sc3ccncc3C3NC(=O)NC3=O)cc2)c1` (stereo not shown) [PC-43] the pIC50 [1, 3] was < 6.00.
In the case of `NC(=O)c1ccncc1COc1ccc(Sc2ccncc2C2NC(=O)NC2=O)cc1` (stereo not shown) [PC-38], the pIC50 [1, 3] was < 6.00.
`O=C1NC(=O)C(c2sccc2Sc2ccc(OCc3ccccc3CO)cc2)N1` (stereo not shown) [TC5] was tested, and the pIC50 (recombinant human MMP-3) was < 6.00, the pIC50 (recombinant human MMP-10) was < 6.00 and the pIC50 (recombinant human MMP-2) was < 6.00. The pIC50 [1, 2] was > 8.00, the pIC50 [1, 3] was > 8.00 and the pIC50 (recombinant human MMP-8) was < 6.00. The pIC50 (recombinant human MMP-9) was < 6.00.
For `Cc1cc(COc2ccc(Sc3ccsc3C3NC(=O)NC3=O)cc2)ccn1` (stereo not shown) [TC8], the pIC50 [1, 2] was > 8.00, the pIC50 [1, 3] was > 8.00 and the pIC50 (recombinant human MMP-7) was < 6.00.
With `Cc1cc(COc2ccc(Sc3ncn(C)c3C3NC(=O)NC3=O)cc2)ccn1` (stereo not shown) [OC-13] the pIC50 (recombinant human MMP-3) was < 6.00, the pIC50 (recombinant human MMP-10) was < 6.00 and the pIC50 [1, 2] was > 8.00. The pIC50 [1, 3] was > 8.00 and the pIC50 (recombinant human MMP-9) was < 6.00.
In the case of `O=C1NC(=O)C(c2sccc2Sc2ccc(OCc3cccc(O)c3)cc2)N1` (stereo not shown) [TC7], the pIC50 [1, 3] was > 8.00.
`Cc1cc(COc2ccc(Sc3ccncc3C3NC(=O)NC3=O)c(Cl)c2)ccn1` (stereo not shown) [PC-51] was tested, and the pIC50 (recombinant human MMP-14) was < 6.00, the pIC50 (recombinant human MMP-3) was < 6.00 and the pIC50 (recombinant human MMP-10) was < 6.00. For the same compound, the pIC50 (recombinant human MMP-2) was < 6.00, the pIC50 [1, 2] was > 8.00 and the pIC50 [1, 3] was > 8.00. For the same compound, the pIC50 (recombinant human MMP-9) was < 6.00 and the pIC50 (recombinant human MMP-7) was < 6.00.
With `Cc1cc(COc2ccc(Sc3ccncc3C3C(=O)N(C)C(=O)N3C)cc2)ccn1` (stereo not shown) [PC-54] the pIC50 [1, 3] was < 6.00.
With `CCC1(c2ccncc2Sc2ccc(OCc3ccnc(C)c3)cc2)NC(=O)NC1=O` (stereo not shown) [PC-64] the pIC50 [1, 3] was > 8.00.
In the case of `CCC1(c2cnccc2Sc2ccc(OCc3cccc(C)c3)cc2)NC(=O)NC1=O` (stereo not shown) [PC-22], the pIC50 (recombinant human MMP-14) was < 6.00, the pIC50 (recombinant human MMP-10) was < 6.00 and the pIC50 (recombinant human MMP-2) was < 6.00. For the same compound, the pIC50 [1, 2] was > 8.00, the pIC50 [1, 3] was > 8.00 and the pIC50 (recombinant human MMP-8) was < 6.00. The pIC50 (recombinant human MMP-9) was < 6.00.
`O=C1NC(=O)C(c2cnccc2Sc2ccc(OCc3cncc(C(=O)O)c3)cc2)N1` (stereo not shown) [PC-21] was tested, and the pIC50 [1, 3] was < 6.00.
With `O=C1NC(=O)C(c2cnccc2Sc2ccc(OCc3ccnc(CO)c3)cc2)N1` (stereo not shown) [PC-40] the pIC50 [1, 3] was > 8.00.
In the case of `Cc1cc(COc2ccc(Sc3ncoc3C3NC(=O)NC3=O)cc2)ccn1` (stereo not shown) [OC-7], the pIC50 (recombinant human MMP-3) was < 6.00, the pIC50 (recombinant human MMP-10) was < 6.00 and the pIC50 [1, 2] was > 8.00. For the same compound, the pIC50 [1, 3] was > 8.00 and the pIC50 (recombinant human MMP-9) was < 6.00.
In the case of `O=C1NC(=O)C(c2ccncc2Sc2ccc(OCc3cncc(CO)c3)cc2)N1` (stereo not shown) [PC-47], the pIC50 [1, 3] was < 6.00.
In the case of `O=C1NC(=O)C(c2cnccc2Sc2ccc(OCc3cccc(O)c3)cc2)N1` (stereo not shown) [PC-10], the pIC50 (recombinant human MMP-3) was < 6.00, the pIC50 (recombinant human MMP-2) was < 6.00 and the pIC50 [1, 2] was > 8.00. For the same compound, the pIC50 [1, 3] was > 8.00, the pIC50 (recombinant human MMP-8) was < 6.00 and the pIC50 (recombinant human MMP-13) was < 6.00. The pIC50 (recombinant human MMP-9) was < 6.00.
In the case of `O=C1NC(=O)C(c2ccncc2Sc2ccc(OCc3cccc(CO)c3)cc2)N1` (stereo not shown) [PC-13], the pIC50 (recombinant human MMP-10) was < 6.00, the pIC50 (recombinant human MMP-2) was < 6.00 and the pIC50 [1, 2] was > 8.00. For the same compound, the pIC50 [1, 3] was > 8.00, the pIC50 (recombinant human MMP-8) was < 6.00 and the pIC50 (recombinant human MMP-13) was < 6.00. The pIC50 (recombinant human MMP-9) was < 6.00.
With `NC(=O)c1cc(COc2ccc(Sc3cnccc3C3NC(=O)NC3=O)cc2)ccn1` (stereo not shown) [PC-59] the pIC50 [1, 3] was 6.00 to 7.00.
With `CCC1(c2cnccc2Sc2ccc(OCc3ccnc(C)c3)cc2)NC(=O)NC1=O` (stereo not shown) [PC-63] the pIC50 [1, 3] was > 8.00.
For `Cc1cc(COc2ccc(Sc3ccncc3C3(C)C(=O)N(C)C(=O)N3C)cc2)ccn1` (stereo not shown) [PC-46], the pIC50 [1, 3] was < 6.00.
For `O=C1NC(=O)C(c2sccc2Sc2ccc(OCc3cccc(CO)c3)cc2)N1` (stereo not shown) [TC4], the pIC50 (recombinant human MMP-14) was < 6.00, the pIC50 (recombinant human MMP-10) was < 6.00 and the pIC50 (recombinant human MMP-2) was < 6.00. For the same compound, the pIC50 [1, 2] was > 8.00, the pIC50 [1, 3] was > 8.00 and the pIC50 (recombinant human MMP-13) was < 6.00. For the same compound, the pIC50 (recombinant human MMP-9) was < 6.00.
With `O=C1NC(=O)C(c2ccncc2Sc2ccc(OCc3cccc(O)c3)cc2)N1` (stereo not shown) [PC-15] the pIC50 [1, 3] was > 8.00.
For `O=C1NC(=O)C(c2cnccc2Sc2ccc(OCc3cccc(CO)c3)cc2)N1` (stereo not shown) [PC-8], the pIC50 (recombinant human MMP-3) was < 6.00, the pIC50 (recombinant human MMP-2) was < 6.00 and the pIC50 [1, 2] was > 8.00. The pIC50 [1, 3] was > 8.00 and the pIC50 (recombinant human MMP-13) was < 6.00.
For `Cc1cc(COc2ccc(Sc3ccncc3C3NC(=O)NC3=O)c(F)c2)ccn1` (stereo not shown) [PC-50], the pIC50 (recombinant human MMP-14) was < 6.00, the pIC50 (recombinant human MMP-10) was < 6.00 and the pIC50 [1, 2] was > 8.00. For the same compound, the pIC50 [1, 3] was > 8.00 and the pIC50 (recombinant human MMP-9) was < 6.00.
With `Cc1cc(COc2ccc(Sc3cnccc3C3NC(=O)NC3=O)cc2)ccn1` (stereo not shown) [PC-18] the pIC50 [1, 3] was > 8.00.
For `Cc1cc(COc2ccc(Sc3ocnc3C3NC(=O)NC3=O)cc2)ccn1` (stereo not shown) [OC-11], the pIC50 [1, 3] was < 6.00.
With `O=C1NC(=O)C(c2ccncc2Sc2ccc(OCc3ccccc3CO)cc2)N1` (stereo not shown) [PC-12] the pIC50 (recombinant human MMP-10) was < 6.00, the pIC50 (recombinant human MMP-2) was < 6.00 and the pIC50 [1, 2] was > 8.00. The pIC50 [1, 3] was > 8.00, the pIC50 (recombinant human MMP-8) was < 6.00 and the pIC50 (recombinant human MMP-9) was < 6.00.
For `Cc1cc(COc2ccc(Sc3cnn(C)c3C3NC(=O)NC3=O)cc2)ccn1` (stereo not shown) [OC-12], the pIC50 (recombinant human MMP-14) was < 6.00, the pIC50 (recombinant human MMP-3) was < 6.00 and the pIC50 (recombinant human MMP-10) was < 6.00. For the same compound, the pIC50 [1, 2] was > 8.00, the pIC50 [1, 3] was > 8.00 and the pIC50 (recombinant human MMP-9) was < 6.00.
For `O=C1NC(=O)C(c2cnccc2Sc2ccc(OCc3ccnc(C(=O)O)c3)cc2)N1` (stereo not shown) [PC-20], the pIC50 [1, 3] was < 6.00.
For `Cc1cc(COc2ccc(Sc3ccncc3C3NC(=O)NC3=O)cc2C)ccn1` (stereo not shown) [PC-48], the pIC50 (recombinant human MMP-3) was < 6.00, the pIC50 (recombinant human MMP-10) was < 6.00 and the pIC50 (recombinant human MMP-2) was < 6.00. The pIC50 [1, 2] was > 8.00, the pIC50 [1, 3] was > 8.00 and the pIC50 (recombinant human MMP-8) was < 6.00. For the same compound, the pIC50 (recombinant human MMP-9) was < 6.00.
